For one assay, the target named is T1, BsRhaA (Bacillus sp. GL1, UniProt Q93RE8).
T1 sequence (Q93RE8 1-886): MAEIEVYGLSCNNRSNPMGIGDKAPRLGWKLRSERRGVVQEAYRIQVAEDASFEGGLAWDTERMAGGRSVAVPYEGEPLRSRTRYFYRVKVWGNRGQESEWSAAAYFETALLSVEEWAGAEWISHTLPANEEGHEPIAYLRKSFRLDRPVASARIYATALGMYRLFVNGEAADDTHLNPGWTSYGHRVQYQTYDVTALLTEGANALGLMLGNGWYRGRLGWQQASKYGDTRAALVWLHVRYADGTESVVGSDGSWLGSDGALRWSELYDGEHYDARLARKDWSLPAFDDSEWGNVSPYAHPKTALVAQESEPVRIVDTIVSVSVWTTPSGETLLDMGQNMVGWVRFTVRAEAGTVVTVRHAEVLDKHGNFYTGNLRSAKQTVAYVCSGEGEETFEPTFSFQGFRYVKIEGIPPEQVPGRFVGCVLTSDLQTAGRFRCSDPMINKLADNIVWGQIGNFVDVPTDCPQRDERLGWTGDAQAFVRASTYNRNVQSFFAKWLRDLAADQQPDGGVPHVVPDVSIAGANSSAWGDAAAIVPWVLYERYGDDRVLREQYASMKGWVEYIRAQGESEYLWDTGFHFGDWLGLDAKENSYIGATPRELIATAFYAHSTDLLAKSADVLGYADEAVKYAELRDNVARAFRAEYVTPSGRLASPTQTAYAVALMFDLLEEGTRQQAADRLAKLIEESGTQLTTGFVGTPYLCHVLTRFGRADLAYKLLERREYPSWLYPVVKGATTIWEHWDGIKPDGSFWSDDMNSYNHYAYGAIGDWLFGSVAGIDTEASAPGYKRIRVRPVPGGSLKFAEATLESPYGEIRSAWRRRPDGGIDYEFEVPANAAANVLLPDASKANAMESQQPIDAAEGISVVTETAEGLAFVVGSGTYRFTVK
As to the kind of experiment: p-nitrophenol release, absorbance […] nm. The class given is biochemical. The settings on record: […] sodium phosphate pH […] °C.

A further assay concerns the target T2, KoRha (Klebsiella oxytoca, UniProt A0A0J9X262).
T2 sequence (A0A0J9X262 1-523): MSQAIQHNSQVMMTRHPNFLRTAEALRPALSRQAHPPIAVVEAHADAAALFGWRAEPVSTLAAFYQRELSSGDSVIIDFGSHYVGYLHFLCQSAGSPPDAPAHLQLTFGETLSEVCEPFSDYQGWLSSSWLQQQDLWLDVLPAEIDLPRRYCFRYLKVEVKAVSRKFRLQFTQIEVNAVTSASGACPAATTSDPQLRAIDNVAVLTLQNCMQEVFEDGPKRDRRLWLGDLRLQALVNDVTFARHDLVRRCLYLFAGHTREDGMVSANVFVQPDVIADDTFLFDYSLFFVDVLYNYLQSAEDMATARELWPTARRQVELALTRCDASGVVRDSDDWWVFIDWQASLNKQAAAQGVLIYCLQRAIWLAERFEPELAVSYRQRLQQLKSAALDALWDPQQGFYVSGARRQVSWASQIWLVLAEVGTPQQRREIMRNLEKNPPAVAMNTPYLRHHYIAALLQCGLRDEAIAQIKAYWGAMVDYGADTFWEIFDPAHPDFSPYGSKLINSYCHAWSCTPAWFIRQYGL
Put plainly: p-nitrophenol release, absorbance […] nm. Conditions: 100 mM sodium phosphate pH 7.0, 30 °C. Type of assay: biochemical.

As to `C[C@@H]1O[C@@H](Oc2ccc([N+](=O)[O-])cc2)[C@H](O)[C@H](O)[C@H]1O` [pNP-α-L-Rha, 4-nitrophenyl-α-L-rhamnopyranoside], the “p-nitrophenol release, absorbance 405 nm” value at BsRhaA is “All four α-L-Rha-ases exhibited α-L-rhamnosyl-hydrolyzing and weak α-L-mannosyl-hydrolyzing activity”; on KoRha it was “All four α-L-Rha-ases exhibited α-L-rhamnosyl-hydrolyzing and weak α-L-mannosyl-hydrolyzing activity”.
